{"source": "patent US8568994B2", "about": "“Method for prenatal diagnosis” (DKFZ Deutsches Krebsforschungszentrum, Stiftung des …, priority 2007, dated 2013)", "tested_on": "Differentiated HPC cells", "assay": "Regulated exosomal secretion in human podocytes (Western blot of secreted vesicles for CD24, HSP70, Annexin-1)", "type": "cell-based", "conditions": "MCD 10 μg/ml or 10 mM for 2 hr", "experimental": "Cultured HPC (differentiated) were treated with ionomycin (1 μM), MCD (10 mM) or cis-platin (15 μM) for 2 hr. Secreted membrane vesicles were harvested and cells were lysed in lysis buffer. Lysates and isolated vesicles were analyzed by SDS-PAGE followed by Western blot analysis with the indicated antibodies to CD24 and the exosomal marker proteins HSP70 and Annexin-1. Note the low level of constitutive vesicle secretion that is augmented by MCD.\nDifferentiated HPC cells were treated with ionomycin ([…]), MCD (10 μg/ml) or cisplatin (1 μg/ml) and analyzed the amount of exosomes released.\nHuman conditionally immortalized podocytes (HPC) were isolated and cultivated as previously described (31). Cells were grown in flasks either at the permissive temperature of 32° C. (in 5% CO2) to promote cell propagation as a cobblestone phenotype (undifferentiated) or at the nonpermissive temperature of 37° C. (in 5% CO2) to inactivate the SV40 T antigen and to allow the cells to differentiate. Prior to stimulation, cells were incubated for 16 h in RPMI 1640 medium, supplemented with 0.1 mg/ml of fatty acid-free bovine serum albumin. HK-2 human proximal tubular epithelial cells were obtained from American Type Culture Collection (ATCC, USA). Human mesangial cells (HMC) were kindly provided by Prof. Dr. Radeke (Depart. of Pharmacology, University of Frankfurt). […]", "data": [{"substance": "methyl-beta-cyclodextrin [MCD]", "values": [{"measurement": "release of CD24 containing exosomes", "value": "significantly augmented the release of CD24 containing exosomes"}]}]}
